These results are taken from patent US7893072B2, “Trp-p8 active compounds and therapeutic treatment methods” (Genentech, Inc., priority 2003, dated 2011).

Structures are written as SMILES. Where two headings read alike, the source gives them in different places.

In one assay the target is T1, Trp-p8 (Homo sapiens, UniProt Q7Z2W7).
T1 construct: expressed in transfected cells; host or cells: 293 and PC3 cells expressing Trp-p8 (non-expressing controls: 293, PC3, PC3/neo)
The assay can be described thus: Calcium ion uptake / flux (FLIPR) in cells expressing Trp-p8. In kind it is cell-based. The settings on record: for Peak (FLIPR): maximum calcium ion flux at 10 microM. From the text: General methods and materials disclosed in R. Skyryma, et al., J. Physiology, 2000, 527.1, 71-83, for assessing and measuring calcium ion flux or cell uptake, and induction of apoptosis were adapted for use in the present disclosure and as illustrated herein. Other test methods and procedures such as described below, including cell line culturing, transfection, and in vivo and in vitro tumor growth inhibition, are readily apparent to one of ordinary skill in the art upon comprehending the disclosure.
Calcium ion uptake experiments were conducted as follows. Calcium uptake was measured for cells expressing Trp-p8 tumor antigen and for cells not expressing Trp-p8 tumor antigen after each cell line was contacted with cool-genic compounds of the present disclosure. […] Cells not expressing tumor antigen had essentially no observable calcium uptake over all of the cool-genic compound concentrations. […] Cell lines included non-expressing lines: 293, PC3, and PC3/neo; and tumor antigen expressing lines: […].

In assay [1] the test system is 293 cells expressing Trp-p8. Put plainly: Human cell killing in vitro, 293 cells expressing Trp-p8. In kind it is cell-based. The protocol:
(§1) Human Cell Killing in vitro by Compounds that Activate Trp-p8. Referring to the Figures, in FIG. 1 the effectiveness of selected cool-genic compounds in human cell killing was evaluated. The order and potency of cool-genic compounds were compared in two related human cell lines, one was 293 cells expressing Trp-p8 and a second was matched 293 cells lacking (not expressing) Trp-p8 used as a control. There were about 50,000 cells per well at plating. The cool-genic compounds were added at plating. The cells were treated by exposing the cells to the individual compounds at varying concentrations over about 0.1 to about 1,000 microM for 72 hours. […] FIGS. 1A and 1C show the response of cells expressing Trp-p8 and treated with the indicated numbered or named coolgenic compounds. FIGS. 1B and 1D show the response of cells without (not expressing) Trp-p8 and also treated with the indicated coolgenic compounds. […] Compound IIa4-1 had the best kill (IC50<1 microM) for cells expressing Trp-p8.

In another assay the test system is 293/Trp-p8.clone 10. The assay can be described thus: IC50 on 293/Trp-p8.clone 10. The assay is classed as cell-based, human. The settings on record: read-out: IC50 293/Trp-p8.c10. The protocol:
as §1

The next assay concerns 293/Trp-p8.clone 18. The assay can be described thus: IC50 on 293/Trp-p8.clone 18. In kind it is cell-based, human. Conditions: read-out: IC50 293/Trp-p8.c18. The protocol:
as §1

The test system of the next assay is PC3/Trp-p8.clone 21. Put plainly: IC50 on PC3/Trp-p8.clone 21. In kind it is cell-based. The settings on record: Homo sapiens, PC3/Trp-p8.clone 21, in duplicate.
The next assay deals with PC3/Trp-p8. The assay can be described thus: PC3/Trp-p8 cell killing. In kind it is cell-based, human.

T1 sequence (Q7Z2W7 whole entry): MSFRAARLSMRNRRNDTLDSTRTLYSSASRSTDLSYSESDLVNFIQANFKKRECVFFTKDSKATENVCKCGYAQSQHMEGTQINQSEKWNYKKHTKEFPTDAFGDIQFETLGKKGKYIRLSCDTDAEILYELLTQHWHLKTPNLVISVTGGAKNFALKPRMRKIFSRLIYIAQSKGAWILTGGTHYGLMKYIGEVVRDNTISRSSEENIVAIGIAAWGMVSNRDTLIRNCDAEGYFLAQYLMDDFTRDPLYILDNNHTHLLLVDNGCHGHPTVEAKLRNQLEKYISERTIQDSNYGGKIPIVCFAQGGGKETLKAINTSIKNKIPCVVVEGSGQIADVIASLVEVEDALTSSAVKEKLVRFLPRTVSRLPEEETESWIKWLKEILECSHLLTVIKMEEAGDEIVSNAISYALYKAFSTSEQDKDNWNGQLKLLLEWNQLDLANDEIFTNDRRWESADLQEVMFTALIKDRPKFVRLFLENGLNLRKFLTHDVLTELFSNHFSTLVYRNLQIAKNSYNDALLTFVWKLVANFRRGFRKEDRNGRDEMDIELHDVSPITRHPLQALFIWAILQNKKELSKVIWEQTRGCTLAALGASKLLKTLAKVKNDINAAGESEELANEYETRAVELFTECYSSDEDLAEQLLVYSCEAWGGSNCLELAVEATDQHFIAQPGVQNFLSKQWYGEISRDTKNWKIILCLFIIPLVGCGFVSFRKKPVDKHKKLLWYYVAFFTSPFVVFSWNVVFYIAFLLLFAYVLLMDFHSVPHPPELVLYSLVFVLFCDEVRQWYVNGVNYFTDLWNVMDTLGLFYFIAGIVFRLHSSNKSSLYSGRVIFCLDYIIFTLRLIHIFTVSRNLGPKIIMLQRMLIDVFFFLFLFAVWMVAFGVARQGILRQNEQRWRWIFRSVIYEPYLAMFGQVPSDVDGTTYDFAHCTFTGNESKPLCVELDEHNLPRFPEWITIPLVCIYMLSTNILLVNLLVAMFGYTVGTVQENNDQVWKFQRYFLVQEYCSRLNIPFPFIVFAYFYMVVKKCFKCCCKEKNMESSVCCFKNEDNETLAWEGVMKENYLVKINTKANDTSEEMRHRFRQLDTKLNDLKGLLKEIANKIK

In the case of `CC1CCC(C(C)C)C(C(=O)NC(C)(C)C)C1` (centres unmarked) [IIb-4], at Trp-p8, the “Peak (FLIPR)” value is recorded as 25,100. Also, in assay [1], the “293/Trp-p8 Cell Killing” value is listed as “Yes”.

`CC(C)[C@@H]1CC[C@@H](C)C[C@H]1C(=O)Nc1ccc(O)cc1` [IIa4-3]: the IC50 in the assay with 293/Trp-p8.clone 10 (Homo sapiens) was 1230 nM; in the assay with 293/Trp-p8.clone 18 (Homo sapiens) it was 1050 nM; in the assay with PC3/Trp-p8.clone 21, 4270 nM.

As to `O=C1NC(c2cccc([N+](=O)[O-])c2)=CCN1c1ccccc1O` [Icilin, 3-(2-Hydroxy-phenyl)-6-(3-nitro-phenyl)-3,4-dihydro-1H-pyrimidin-2-one, reference compound], the IC50 in the assay on 293/Trp-p8.clone 10 (Homo sapiens) came out at 79200 nM. The “Peak (FLIPR)” value at Trp-p8 is 20,000.

Take `CC(C)[C@@H]1CC[C@@H](C)C[C@H]1C(=O)Nc1cccc(F)c1` [IIa10-2]: the IC50 in the assay on 293/Trp-p8.clone 10 (Homo sapiens) turned out to be 6310 nM; in the assay on 293/Trp-p8.clone 18 (Homo sapiens), 2910 nM.

For `CCCCCCCP(=O)(C(C)CC)C(C)CC` (centres unmarked) [IV-1], the “Peak (FLIPR)” value at Trp-p8 is given as 31,000. Moreover, in assay [1], the “293/Trp-p8 Cell Killing” value was “Yes”.

`CC1CCC(C(C)C)C(C(=O)O)C1` (centres unmarked) [Compound V-1]: on Trp-p8, the “Peak (FLIPR)” value is reported as 9,600.

For the molecule `CCCCCCP(=O)(C(C)CC)C(C)CC` (centres unmarked) [IV-3], the “Peak (FLIPR)” value on Trp-p8 is given as 22,000.

For `CCc1ccc(NC(=O)[C@@H]2C[C@H](C)CC[C@H]2C(C)C)cc1` [IIa4-8], the IC50 is 730 nM in the assay with 293/Trp-p8.clone 10 (Homo sapiens) and 680 nM in the assay with 293/Trp-p8.clone 18 (Homo sapiens).

Consider `CCOC(=O)CNC(=O)C1CC(C)CCC1C(C)C` (centres unmarked) [XIII-1], for which the “Peak (FLIPR)” value at Trp-p8 is recorded as 29,000. For the same molecule, in assay [1], the “293/Trp-p8 Cell Killing” value is reported as “Yes”. In addition, the “PC3/Trp-p8 Cell Killing” value in the assay with PC3/Trp-p8 is on record as “Yes”.

For the molecule `CCCc1ccc(NC(=O)[C@@H]2C[C@H](C)CC[C@H]2C(C)C)cc1` [IIa4-12, 2-Isopropyl-5-methyl-cyclohexanecarboxylic acid(4-propyl-phenyl)-amide], the IC50 in the assay on 293/Trp-p8.clone 10 (Homo sapiens) came to 5650 nM; in the assay with 293/Trp-p8.clone 18 (Homo sapiens) it was 4930 nM; in the assay on PC3/Trp-p8.clone 21, 12900 nM.

On to `CC1CCC(C(C)C)C(C(=O)Nc2ccc(N3CCOCC3)cc2)C1` (centres unmarked) [IIa4-9, 2-Isopropyl-5-methyl-cyclohexanecarboxylic acid (4-morpholin-4-yl-phenyl)-amide], for which the IC50 in the assay with 293/Trp-p8.clone 10 (Homo sapiens) worked out at 1280 nM; with 293/Trp-p8.clone 18 (Homo sapiens), 1450 nM.

With `CC(C)[C@@H]1CC[C@@H](C)C[C@H]1C(=O)Nc1ccc(F)cc1` [IIa4-6], the IC50 was 3580 nM in the assay on 293/Trp-p8.clone 10 (Homo sapiens) and 3780 nM in the assay on 293/Trp-p8.clone 18 (Homo sapiens).

Consider `CCCCCP(=O)(C(C)CC)C(C)CC` (centres unmarked) [IV-2], for which the “Peak (FLIPR)” value at Trp-p8 is listed as 29,000.

In the case of `Cc1ccc(NC(=O)[C@@H]2C[C@H](C)CC[C@H]2C(C)C)cc1` [IIa4-7], the IC50 was 1210 nM in the assay with 293/Trp-p8.clone 10 (Homo sapiens) and 1140 nM in the assay with 293/Trp-p8.clone 18 (Homo sapiens).

On to `COc1ccc(NC(=O)[C@@H]2C[C@H](C)CC[C@H]2C(C)C)cc1F` [IIa6-1], for which the IC50 with 293/Trp-p8.clone 10 (Homo sapiens) came to 790 nM; in the assay with 293/Trp-p8.clone 18 (Homo sapiens) it was 600 nM.

As to `COc1ccc(NC(=O)C2CC(C)CCC2C(C)C)cc1Cl` (centres unmarked) [IIa6-2, 2-Isopropyl-5-methyl-cyclohexanecarboxylic acid(3-chloro-4-methoxy-phenyl)-amide], the IC50 in the assay with 293/Trp-p8.clone 10 was 3100 nM; in the assay with 293/Trp-p8.clone 18 it was 2570 nM.

For the molecule `CC(C)[C@@H]1CC[C@@H](C)C[C@H]1C(=O)Nc1ccc(C(C)(C)C)cc1` [IIa4-11, 2-Isopropyl-5-methyl-cyclohexanecarboxylic acid(4-tert-butyl-phenyl)-amide], the IC50 in the assay on 293/Trp-p8.clone 10 (Homo sapiens) was 1230 nM; in the assay with 293/Trp-p8.clone 18 (Homo sapiens) it was 1410 nM.

In the case of `CC(C)[C@@H]1CC[C@@H](C)C[C@H]1C(=O)Nc1ccc(Cl)cc1` [IIa4-5], the values for the IC50 with 293/Trp-p8.clone 10 (Homo sapiens) and in the assay with 293/Trp-p8.clone 18 (Homo sapiens) were 1990 nM and 17600 nM, respectively.

For the molecule `CCC(C)NC(=O)C1CC(C)CCC1C(C)C` (centres unmarked) [IIb-5], on Trp-p8, the “Peak (FLIPR)” value is recorded as 23,300.

With `COc1ccc(NC(=O)[C@@H]2C[C@H](C)CC[C@H]2C(C)C)c(C)c1` [IIa12-1], the IC50 came out at 1140 nM in the assay on 293/Trp-p8.clone 10 (Homo sapiens) and 930 nM with 293/Trp-p8.clone 18 (Homo sapiens).

As for `CC(C)c1ccc(NC(=O)[C@@H]2C[C@H](C)CC[C@H]2C(C)C)cc1` [IIa4-4], the IC50 in the assay on 293/Trp-p8.clone 10 (Homo sapiens) came out at 760 nM; in the assay with 293/Trp-p8.clone 18 (Homo sapiens), 980 nM; with PC3/Trp-p8.clone 21, 3210 nM.

Regarding `COc1ccccc1NC(=O)[C@@H]1C[C@H](C)CC[C@H]1C(C)C` [IIa8-1], the IC50 in the assay with 293/Trp-p8.clone 10 (Homo sapiens) worked out at 16700 nM; with 293/Trp-p8.clone 18 (Homo sapiens) it was 17600 nM.

With `Cc1cc(NC(=O)[C@@H]2C[C@H](C)CC[C@H]2C(C)C)ccc1C(C)C` [IIa6-4, 2-Isopropyl-5-methyl-cyclohexanecarboxylic acid(4-isopropyl-3-methyl-phenyl)-amide], the IC50 with 293/Trp-p8.clone 10 (Homo sapiens) stood at 5050 nM; in the assay on 293/Trp-p8.clone 18 (Homo sapiens) it was 4370 nM.

For `COC(=O)CNC(=O)C1CC(C)CCC1C(C)C` (centres unmarked) [XIII-2], on Trp-p8, the “Peak (FLIPR)” value is 25,000.

In the case of `COc1ccc(NC(=O)C2CC(C)CCC2C(C)C)cc1` (centres unmarked) [IIa4-1, 2-Isopropyl-5-methyl-cyclohexanecarboxylic acid(4-methoxy-phenyl)-amide], the IC50 was 420 nM in the assay on 293/Trp-p8.clone 10 (Homo sapiens); 580 nM in the assay with 293/Trp-p8.clone 18 (Homo sapiens); 450 nM in the assay with 293/Trp-p8.clone 18; below 1000 nM in assay [1] (Homo sapiens, HEK293, 72 hours, about 50,000 cells per well, read-out: IC50 (kill) for cells expressing Trp-p8); 1640 nM in the assay on PC3/Trp-p8.clone 21. Also, the calcium uptake result at Trp-p8 (cells expressing Trp-p8, about 0.0001 to about 10 microM) was “particularly high calcium uptake”. For the same molecule, the “Peak (FLIPR)” value at Trp-p8 is listed as 31,000. In assay [1], the “293/Trp-p8 Cell Killing” value is “Yes”. For the same molecule, the “PC3/Trp-p8 Cell Killing” value in the assay with PC3/Trp-p8 is “Yes”.

On to `CC1CCC(C(C)C)C(C(=O)OCCOCCO)C1` (centres unmarked) [Compound V-4], for which the “Peak (FLIPR)” value on Trp-p8 was 17,500.

As to `CNC(=O)C(C)(C(C)C)C(C)C` [III-1], at Trp-p8, the “Peak (FLIPR)” value was 5,000.

With `CCC(C)c1ccc(NC(=O)[C@@H]2C[C@H](C)CC[C@H]2C(C)C)cc1` (some centres unmarked) [IIa4-10, 2-Isopropyl-5-methyl-cyclohexanecarboxylic acid(4-sec-butyl-phenyl)-amide], the IC50 in the assay with 293/Trp-p8.clone 10 (Homo sapiens) was 3590 nM; in the assay on 293/Trp-p8.clone 18 (Homo sapiens), 1080 nM.

As for `CC1CCC(C(C)C)C(C(=O)OCCO)C1` (centres unmarked) [Compound V-2], at Trp-p8, the “Peak (FLIPR)” value is given as 17,000.

Consider `CC1CCC(C(C)C)C(C(=O)Nc2ccc3c(c2)CCC3)C1` (centres unmarked) [IIa6-3, 2-Isopropyl-5-methyl-cyclohexanecarboxylic acid indan-5-ylamide], for which the IC50 was found to be 1350 nM in the assay with 293/Trp-p8.clone 10 (Homo sapiens) and 1710 nM in the assay with 293/Trp-p8.clone 18 (Homo sapiens).

As for `COc1cccc(NC(=O)[C@@H]2C[C@H](C)CC[C@H]2C(C)C)c1` [IIa10-1], the values for the IC50 in the assay on 293/Trp-p8.clone 10 (Homo sapiens) and with 293/Trp-p8.clone 18 (Homo sapiens) were 3800 nM and 3690 nM, respectively.

On to `CC(C)[C@@H]1CC[C@@H](C)C[C@H]1C(=O)Nc1ccccc1` [IIa4-2], for which the IC50 is 3210 nM with 293/Trp-p8.clone 10 (Homo sapiens) and 3380 nM in the assay on 293/Trp-p8.clone 18 (Homo sapiens).

In the case of `CCNC(=O)C1CC(C)CCC1C(C)C` (centres unmarked) [IIb-1], the “Peak (FLIPR)” value on Trp-p8 is reported as 25,000.

As to `CC1CCC(C(C)C)C(C(=O)NC(C)C)C1` (centres unmarked) [IIb-2], the “Peak (FLIPR)” value on Trp-p8 was 25,100. The “293/Trp-p8 Cell Killing” value in assay [1] is reported as “Yes”. The “PC3/Trp-p8 Cell Killing” value in the assay on PC3/Trp-p8 is “Yes”.

Turning to `CC1CCC(C(C)C)C(C(=O)NC(C)(C)CO)C1` (centres unmarked) [IIb-3], the “Peak (FLIPR)” value at Trp-p8 was 25,100. Further, the “293/Trp-p8 Cell Killing” value in assay [1] is “Yes”. For the same molecule, the “PC3/Trp-p8 Cell Killing” value in the assay on PC3/Trp-p8 is recorded as “Yes”.
